From patent US20210220408A1, “ARYL HYDROCARBON RECEPTOR ANTAGONISTS AND METHODS OF USE” (Magenta Therapeutics Inc., priority 2018, published 2021) come the findings set out here.

Structures are written as SMILES. pIC50: −log10 of the molar value.

The test concerns the target T1, aryl hydrocarbon receptor (AHR) (Homo sapiens, UniProt P35869).
T1 sequence (P35869 11-848): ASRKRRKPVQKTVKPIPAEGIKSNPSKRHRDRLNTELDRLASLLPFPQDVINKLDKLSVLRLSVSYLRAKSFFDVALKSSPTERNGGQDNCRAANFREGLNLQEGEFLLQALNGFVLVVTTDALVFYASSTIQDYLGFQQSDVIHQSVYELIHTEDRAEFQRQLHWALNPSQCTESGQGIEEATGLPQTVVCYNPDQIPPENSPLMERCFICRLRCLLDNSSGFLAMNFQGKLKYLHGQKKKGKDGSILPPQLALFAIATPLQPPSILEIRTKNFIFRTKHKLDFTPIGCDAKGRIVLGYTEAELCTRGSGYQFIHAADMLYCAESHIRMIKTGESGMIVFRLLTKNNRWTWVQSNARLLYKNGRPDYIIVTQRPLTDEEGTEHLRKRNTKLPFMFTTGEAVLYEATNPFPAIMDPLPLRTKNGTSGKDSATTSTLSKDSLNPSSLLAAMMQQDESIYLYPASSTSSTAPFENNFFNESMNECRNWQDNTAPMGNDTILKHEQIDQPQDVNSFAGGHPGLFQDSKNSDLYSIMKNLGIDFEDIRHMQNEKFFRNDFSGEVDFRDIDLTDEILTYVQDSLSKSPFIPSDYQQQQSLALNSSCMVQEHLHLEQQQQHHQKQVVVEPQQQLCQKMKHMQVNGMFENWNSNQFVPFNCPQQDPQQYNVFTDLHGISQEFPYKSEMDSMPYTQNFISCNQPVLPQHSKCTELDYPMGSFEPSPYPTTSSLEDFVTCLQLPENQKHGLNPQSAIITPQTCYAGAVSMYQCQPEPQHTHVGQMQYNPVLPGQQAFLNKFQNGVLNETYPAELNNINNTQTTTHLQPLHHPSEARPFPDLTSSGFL
In words: DRE-Luciferase reporter high-throughput screen (AHR antagonist, VAF347-activated).
`Cc1ccc(OCc2cc(=O)n3ccsc3n2)cc1C` [113B] gave a pIC50 of 5.70 to 6.00. Compound `COC(=O)c1sc(-c2ccc(CC(C)C)cc2)cc1N` [146A] had a pIC50 of 5.70 to 6.00.

For `O=C(COC(=O)c1cn2ccccc2n1)Nc1ccc(Cl)cc1Cl` [117A], the negative-log IC50 (pIC50) is < 5.70. Under `CC(C)NC(=O)c1ccc2c(-c3nccs3)noc2c1` [65A] stands 5.70 to 6.00. As for `O=C(Nc1ccc(Cl)cc1)c1ccc(-c2ccccn2)s1` [15B], the pIC50 is 6.00 to 6.30. The figure for `Cc1ccc(NC(=O)CN(C)C(C)c2cccs2)c(F)c1` (stereo not drawn) [147A] is < 5.70; for `Clc1ccc2nnn(OCc3cn4cc(Cl)ccc4n3)c2c1` [116A] it is < 5.70. On to `COc1ccccc1-c1nc(-c2ccc(CN(C)C(C)=O)cc2)cs1` [compound 50], for which the pIC50 was > 6.70.

Regarding `O=C(CNC1=NS(=O)(=O)c2ccccc21)OCc1cn(-c2ccccc2)nc1-c1ccccc1` [58B], the pIC50 is < 5.70.

Take `c1ccc(-c2ccc(OCc3cn4ccsc4n3)cc2)cc1` [96A]: the pIC50 was 5.70 to 6.00. With `Cc1nn(-c2ccccc2)c(N)c1-c1nc(-c2ccc(Cl)cc2)cs1` [59A], the pIC50 was < 5.70. Regarding `Cc1cccc(N2CC[C@H]3[C@H]2CCN3c2ncccn2)n1` [115B], the pIC50 was 6.00 to 6.30. Consider `O=C1CSC(N2CCN(c3ccc(Cl)c(Cl)c3)CC2)=N1` [71A], for which the pIC50 was < 5.70. Compound `CC(=O)N1CC=C(c2ccc(OCc3ccc(C#N)cc3)cc2)CC1` [compound 143] gave a negative logarithm of the IC50 (pIC50) of 6.30 to 6.70. On to `Brc1ccc(-c2ccc(NC3CCCC3)nn2)cc1` [49B], for which the negative logarithm of the IC50 (pIC50) is 5.70 to 6.00. As for `FC(F)(F)c1ccc(N/N=C/c2ccc(Cl)cc2)nc1` [45B], the pIC50 is 5.70 to 6.00. Take `Cc1cc(C)c2oc(-c3cccc(NC(=O)c4cccnc4)c3C)nc2c1` [15A]: the pIC50 is 5.70 to 6.00. On to `Cc1ccc(NC(=O)c2ccc(OC(F)(F)F)cc2)nc1` [compound 10], for which the pIC50 is 6.00 to 6.30. Turning to `Cc1cccc(CSc2nncc3ccccc23)c1` [95B], the pIC50 is 6.00 to 6.30. `O=C(Nc1ccc2ccccc2c1)c1cccc(NC(=O)C(F)(F)F)c1` [35A] had a pIC50 of 5.70 to 6.00. The figure for `COc1ccccc1NC(=O)c1sc2nc(N3CCOCC3)c3c(c2c1N)CCCC3` [52A] is 5.70 to 6.00. Compound `COc1ccc(-c2cnn3c(C)cc(C)nc23)cc1OC` [71B] had a pIC50 of 5.70 to 6.00.

For `Cc1cc(C)n(CC(C)Nc2ccc(Cl)c(C#N)n2)n1` (stereo not drawn) [91A], the pIC50 was 5.70 to 6.00.

Take `CCn1cc(C(=O)Nc2ccc(C(C)C)cc2)cn1` [23A]: the pIC50 is 5.70 to 6.00. Regarding `CCOC(=O)c1c(N)sc(C(=O)Nc2cccc(C(F)(F)F)c2)c1C` [20A], the pIC50 was 5.70 to 6.00. In the case of `Cn1c(COc2cccc3ccccc23)nc2ccccc21` [67B], the pIC50 is 5.70 to 6.00. For the compound `O=C(Nc1cccnc1N1CCN(c2ncc(C(F)(F)F)cc2Cl)CC1)c1ccc(F)cc1` [81A], the negative-log IC50 (pIC50) is 5.70 to 6.00. In the case of `CC(NC(=O)c1c(N)n(C)c2ccccc2c1=O)c1ccccc1` (stereo not drawn) [165A], the pIC50 was < 5.70. As to `COc1cccc(C(=O)Nc2cnc(-c3ccccc3)nc2)c1` [16A], the pIC50 is 5.70 to 6.00. `CCCOc1ccc(-c2csc(N3CCCC3=O)n2)cc1` [compound 54] gave a pIC50 of 6.00 to 6.30. `CNC(=O)c1ccc(-c2cc(C(F)(F)F)nn2C)s1` [60B] showed a pIC50 of 5.70 to 6.00. In the case of `CCn1cnc(-c2nc(C(=O)Nc3cccc(F)c3)c3ccccn23)c1` [48A], the pIC50 is < 5.70.

`CS(=O)(=O)N1CCc2cc(-c3csc(Cc4cn5cc(Cl)cc(Cl)c5n4)n3)ccc21` [57A] showed a pIC50 of 5.70 to 6.00.

For the compound `COC(=O)c1cnn(-c2cc(Nc3c(F)cccc3F)ncn2)c1N` [compound 86], the pIC50 was 6.30 to 6.70. Turning to `FC(F)(F)c1nnc2ccc(N3CCN(c4ccccc4)CC3)nn12` [73A], the pIC50 was < 5.70. For `O=C(c1csc(-c2ccsc2)n1)N1CCCc2cc(C(F)(F)F)ccc21` [37B], the pIC50 is 6.30 to 6.70. Compound `Clc1ccc(Nc2nnc(-c3ccncc3)s2)cc1` [98B] gave a pIC50 of 5.70 to 6.00.

The compound `Cc1ccc(N)cc1Nc1nccc(-c2cccnc2)n1` [compound 85] showed a pIC50 of 6.00 to 6.30.

The compound `O=c1[nH]c2ccccc2nc1NCc1ccc(F)cc1` [168A] gave a pIC50 of 5.70 to 6.00. In the case of `Fc1ccc(-c2cc(N3CCCCC3)on2)cc1` [81B], the pIC50 was < 5.70. On to `COc1cccc(-c2cc(C(F)(F)F)nc(-n3cc(Cl)cn3)n2)c1` [86A], for which the pIC50 is 5.70 to 6.00. As to `Cc1ccc(-c2nc(CSc3nccn3-c3ccccc3)co2)cc1` [136A], the pIC50 is < 5.70. As for `COc1ccc(C(=O)Nc2ccc(C)c(F)c2)cc1` [2B], the pIC50 is 5.70 to 6.00.

Take `CSc1ccc(-c2nnc(NC(=O)C(C)(C)C)s2)cc1` [99B]: the pIC50 was < 5.70. `CC1CN=C(N2CCN(c3nc4c(cc3C#N)CCC4)CC2)S1` (stereo not drawn) [76A] showed a pIC50 of 5.70 to 6.00. `CCOc1ccc(C(=O)Nc2ccccc2C(N)=O)cc1` [7B] had a pIC50 of 5.70 to 6.00. Under `Cn1c(Cl)cnc1-c1cc(=O)c2cc(Cl)ccc2o1` [53B] stands 5.70 to 6.00; under `Clc1ccc(-c2noc(-c3csnn3)n2)cc1` [84B], 6.00 to 6.30; under `C/C(=N\CCc1ccccc1)c1c(C(F)(F)F)[nH]n(-c2nc3ccccc3s2)c1=O` [153A], < 5.70. `COC(OC)c1ccc(C#N)c(=O)n1Cc1ccc(Cl)cc1` [92B] showed a pIC50 of 5.70 to 6.00. In the case of `c1ccc(N2CCN(c3nc(N4CCCCC4)nc4nccnc34)CC2)cc1` [75A], the pIC50 is 5.70 to 6.00. `O=C(Nc1cc2c(s1)CCCC2)c1ccccc1` [21B]: the pIC50 is 5.70 to 6.00. As for `Cc1nn(C)cc1-c1nnc(-c2cccc(C(F)(F)F)c2)o1` [138A], the pIC50 was 5.70 to 6.00.

`N#Cc1ccc(N2CCN(C(=O)Nc3cccc(C(F)(F)F)c3)CC2)nc1` [80A] showed a pIC50 of 5.70 to 6.00. Compound `CC(C)Nc1ccc(-n2nc3ccccc3[n+]2[O-])cc1` [176A] showed a negative-log IC50 (pIC50) of 5.70 to 6.00. Compound `CCOC(=O)c1sc(NC(=O)c2ccc3ncsc3c2)cc1C` [compound 39] showed a pIC50 of 6.00 to 6.30. Under `COC(=O)c1cc2c(ccn2-c2ccc(F)cc2)n1CCC#N` [116B] stands 5.70 to 6.00; under `Cc1ccc(NC(=O)c2cc(C(C)C)n[nH]2)cc1` [24A], < 5.70. For `Cc1ccccc1OCCNC(=O)c1cc(Cl)ccc1F` [141A], the pIC50 is 5.70 to 6.00. In turn, `FC(F)(F)c1cccc(Nc2nc3ccccc3[nH]2)c1` [114A] had a negative logarithm of the IC50 (pIC50) of 5.70 to 6.00.

Compound `Cn1nc(C2CC2)cc1C(=O)Nc1ccc(I)cc1` [compound 36] showed a pIC50 of 6.00 to 6.30. In the case of `N#Cc1ccc(OCc2ccc3nonc3c2)cc1` [174A], the pIC50 was < 5.70. The compound `Cc1ccc2nc3c(c(N)c2c1)CCN3c1ccccc1` [124B] had a pIC50 of 6.00 to 6.30.

For `Cc1cccc(NC(=O)c2nc(-c3cn(CC4CCCO4)cn3)n3ccccc23)c1` (stereo not drawn) [47A], the pIC50 is < 5.70. For `Cc1c(-c2nc(-c3ccc(C(C)(C)C)cc3)no2)n(C)oc1=O` [87B], the pIC50 is 6.30 to 6.70. Turning to `CCOC(=O)c1sc(NC(=O)c2sccc2C)cc1C` [compound 44], the pIC50 was 6.00 to 6.30.

Compound `Cc1c(Br)c(C(=O)N2CCc3ccccc32)nn1C` [61B] had a negative logarithm of the IC50 (pIC50) of 5.70 to 6.00.

As for `C(#Cc1ccc(-c2ccn[nH]2)cc1)c1ccccc1` [103A], the pIC50 is 5.70 to 6.00.

On to `O=C(COc1ccccc1-c1nnc(-c2ccccc2)o1)NCc1ccccn1` [139A], for which the pIC50 is 5.70 to 6.00.
